Source: PubChem BioAssay (NCI)
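Interpolation was linear, between the two tested concentrations surrounding the appropriate level; five concentrations were tested over 48 hours in 96-well plates. TGI: concentration producing complete growth inhibition.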

Assays:
Assay in all cases: inhibition of tumour cell growth, NCI panel, 48 h
HT29 colon = system: HT29 colon
HCT-15 colon = system: HCT-15 colon
SF-539 CNS = system: SF-539 CNS
EKVX NSCLC = system: EKVX NSCLC
UO-31 renal = system: UO-31 renal
SNB-75 CNS = system: SNB-75 CNS
KM20L2 colon = system: KM20L2 colon
HL-60(TB) leukemia = system: HL-60(TB) leukemia
SK-MEL-5 melanoma = system: SK-MEL-5 melanoma
A498 renal = system: A498 renal
M19-MEL melanoma = system: M19-MEL melanoma
COLO 205 colon = system: COLO 205 colon
KM12 colon = system: KM12 colon
SNB-78 CNS = system: SNB-78 CNS
LOX IMVI melanoma = system: LOX IMVI melanoma
SF-295 CNS = system: SF-295 CNS
A549 NSCLC = system: A549 NSCLC
SNB-19 CNS = system: SNB-19 CNS
NCI-H460 lung = system: NCI-H460 lung
IGROV1 ovarian = system: IGROV1 ovarian
OVCAR-5 ovarian = system: OVCAR-5 ovarian
SW-620 colon = system: SW-620 colon
SF-268 CNS = system: SF-268 CNS
SN12C renal = system: SN12C renal
MOLT-4 leukemia = system: MOLT-4 leukemia
UACC-257 melanoma = system: UACC-257 melanoma
UACC-62 melanoma = system: UACC-62 melanoma
SK-MEL-2 melanoma = system: SK-MEL-2 melanoma
OVCAR-3 ovarian = system: OVCAR-3 ovarian
SK-MEL-28 melanoma = system: SK-MEL-28 melanoma
U251 CNS = system: U251 CNS
TK-10 renal = system: TK-10 renal
SK-OV-3 ovarian = system: SK-OV-3 ovarian
ACHN renal = system: ACHN renal
LXFL 529 NSCLC = system: LXFL 529 NSCLC
DMS 273 small cell lung = system: DMS 273 small cell lung
RPMI-8226 leukemia = system: RPMI-8226 leukemia
M14 melanoma = system: M14 melanoma
DLD-1 colon = system: DLD-1 colon
HCT-116 colon = system: HCT-116 colon
HCC-2998 colon = system: HCC-2998 colon
HOP-18 NSCLC = system: HOP-18 NSCLC
NCI-H522 lung = system: NCI-H522 lung
HOP-92 NSCLC = system: HOP-92 NSCLC
CCRF-CEM leukemia = system: CCRF-CEM leukemia
K-562 leukemia = system: K-562 leukemia
SR leukemia = system: SR leukemia
MALME-3M melanoma = system: MALME-3M melanoma
XF 498 CNS = system: XF 498 CNS
OVCAR-8 ovarian = system: OVCAR-8 ovarian
OVCAR-4 ovarian = system: OVCAR-4 ovarian
HOP-62 NSCLC = system: HOP-62 NSCLC
NCI-H23 lung = system: NCI-H23 lung
DMS 114 small cell lung = system: DMS 114 small cell lung
786-0 renal = system: 786-0 renal
CAKI-1 renal = system: CAKI-1 renal

CC(C)(O)[C@H](CCO)O[Si](c1ccccc1)(c1ccccc1)C(C)(C)C
TGI (HT29 colon): 24.6 µM
TGI (HCT-15 colon): 20.7 µM
TGI (SF-539 CNS): 27.3 µM
TGI (EKVX NSCLC): 29.6 µM
TGI (UO-31 renal): 23 µM
TGI (SNB-75 CNS): 22.9 µM
TGI (KM20L2 colon): 23.9 µM
TGI (HL-60(TB) leukemia): 20.1 µM
TGI (SK-MEL-5 melanoma): 27.2 µM
TGI (A498 renal): 30.9 µM
TGI (M19-MEL melanoma): 29.3 µM
TGI (COLO 205 colon): 29.6 µM
TGI (KM12 colon): 25.5 µM
TGI (SNB-78 CNS): 29.8 µM
TGI (LOX IMVI melanoma): 27.6 µM
TGI (SF-295 CNS): 18.9 µM
TGI (A549 NSCLC): 22.1 µM
TGI (SNB-19 CNS): 19.5 µM
TGI (NCI-H460 lung): 26.7 µM
TGI (IGROV1 ovarian): 25.3 µM
TGI (OVCAR-5 ovarian): 28.1 µM
TGI (SW-620 colon): 26.8 µM
TGI (SF-268 CNS): 26.7 µM
TGI (SN12C renal): 14 µM
TGI (MOLT-4 leukemia): 20 µM
TGI (UACC-257 melanoma): 29.7 µM
TGI (UACC-62 melanoma): 24.1 µM
TGI (SK-MEL-2 melanoma): 28.4 µM
TGI (OVCAR-3 ovarian): 23.9 µM
TGI (SK-MEL-28 melanoma): 29 µM
TGI (U251 CNS): 24.9 µM
TGI (TK-10 renal): 25.9 µM
TGI (SK-OV-3 ovarian): 24.5 µM
TGI (ACHN renal): 19.7 µM
TGI (LXFL 529 NSCLC): 23.8 µM
TGI (DMS 273 small cell lung): 24.2 µM
TGI (RPMI-8226 leukemia): 49.4 µM
TGI (M14 melanoma): 25.8 µM
TGI (DLD-1 colon): 21 µM
TGI (HCT-116 colon): 17.6 µM
TGI (HCC-2998 colon): 18.1 µM
TGI (HOP-18 NSCLC): 11.1 µM
TGI (NCI-H522 lung): 20.1 µM
TGI (HOP-92 NSCLC): 23.5 µM
TGI (CCRF-CEM leukemia): 32.2 µM
TGI (K-562 leukemia): 23.7 µM
TGI (SR leukemia): 26.4 µM
TGI (MALME-3M melanoma): 31.5 µM
TGI (XF 498 CNS): 20.7 µM
TGI (OVCAR-8 ovarian): 23.8 µM

Cc1ccc(C2=C(c3ccccc3)C(O)(c3ccc(C)cc3)C(c3ccccc3)=C2c2ccc(C)cc2)cc1
TGI (HCT-15 colon): > 100 µM
TGI (SF-539 CNS): > 100 µM
TGI (EKVX NSCLC): > 100 µM
TGI (KM20L2 colon): > 100 µM
TGI (HL-60(TB) leukemia): > 100 µM
TGI (SK-MEL-5 melanoma): > 100 µM
TGI (A498 renal): > 100 µM
TGI (M19-MEL melanoma): > 100 µM
TGI (COLO 205 colon): > 100 µM
TGI (KM12 colon): > 100 µM
TGI (OVCAR-4 ovarian): > 100 µM
TGI (SNB-78 CNS): > 100 µM
TGI (LOX IMVI melanoma): > 100 µM
TGI (SF-295 CNS): > 100 µM
TGI (HOP-62 NSCLC): > 100 µM
TGI (A549 NSCLC): > 100 µM
TGI (SNB-19 CNS): > 100 µM
TGI (NCI-H460 lung): > 100 µM
TGI (NCI-H23 lung): 40.2 µM
TGI (IGROV1 ovarian): > 100 µM
TGI (OVCAR-5 ovarian): > 100 µM
TGI (SW-620 colon): > 100 µM
TGI (SF-268 CNS): > 100 µM
TGI (SN12C renal): > 100 µM
TGI (MOLT-4 leukemia): > 100 µM
TGI (UACC-257 melanoma): > 100 µM
TGI (UACC-62 melanoma): > 100 µM
TGI (SK-MEL-2 melanoma): > 100 µM
TGI (OVCAR-3 ovarian): > 100 µM
TGI (SK-MEL-28 melanoma): > 100 µM
TGI (U251 CNS): > 100 µM
TGI (TK-10 renal): > 100 µM
TGI (DMS 114 small cell lung): > 100 µM
TGI (SK-OV-3 ovarian): > 100 µM
TGI (ACHN renal): > 100 µM
TGI (LXFL 529 NSCLC): > 100 µM
TGI (DMS 273 small cell lung): > 100 µM
TGI (RPMI-8226 leukemia): > 100 µM
TGI (M14 melanoma): > 100 µM
TGI (786-0 renal): > 100 µM
TGI (DLD-1 colon): > 100 µM
TGI (HCT-116 colon): > 100 µM
TGI (HCC-2998 colon): > 100 µM
TGI (HOP-92 NSCLC): > 100 µM
TGI (CCRF-CEM leukemia): > 100 µM
TGI (K-562 leukemia): > 100 µM
TGI (CAKI-1 renal): > 100 µM
TGI (MALME-3M melanoma): > 100 µM
TGI (XF 498 CNS): > 100 µM
TGI (OVCAR-8 ovarian): > 100 µM
